The target in one experiment is T1, Beta-glucuronidase (Bos taurus, UniProt A3KMY8).
T1 sequence (A3KMY8 whole entry): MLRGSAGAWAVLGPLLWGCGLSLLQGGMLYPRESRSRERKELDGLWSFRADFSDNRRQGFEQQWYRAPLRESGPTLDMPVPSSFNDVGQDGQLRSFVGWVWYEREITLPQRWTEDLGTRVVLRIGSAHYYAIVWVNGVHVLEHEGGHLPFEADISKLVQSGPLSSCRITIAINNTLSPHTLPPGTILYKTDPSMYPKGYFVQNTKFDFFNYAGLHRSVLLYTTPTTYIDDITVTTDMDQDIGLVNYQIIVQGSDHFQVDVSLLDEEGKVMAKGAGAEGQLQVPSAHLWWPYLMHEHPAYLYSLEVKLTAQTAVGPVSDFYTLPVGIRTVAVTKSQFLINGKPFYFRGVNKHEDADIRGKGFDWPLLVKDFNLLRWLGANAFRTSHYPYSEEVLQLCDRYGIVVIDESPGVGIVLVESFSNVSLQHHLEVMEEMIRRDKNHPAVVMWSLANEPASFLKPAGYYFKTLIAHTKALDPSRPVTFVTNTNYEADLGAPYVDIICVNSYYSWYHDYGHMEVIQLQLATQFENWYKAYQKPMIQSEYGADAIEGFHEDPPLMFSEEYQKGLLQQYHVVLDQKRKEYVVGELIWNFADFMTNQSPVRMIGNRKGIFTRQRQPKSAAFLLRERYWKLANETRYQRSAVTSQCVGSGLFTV
Nature of the experiment: Inhibition of bovine liver beta-glucuronidase assessed as p-nitrophenol formation preincubated for 30 mins followed by p-nitrophenyl-beta-D-glucuronide addition by spectrophotometric method.

The target of experiment [1] is T2, Beta-glucuronidase (Bos taurus) (UniProt A3KMY8).
T2 sequence (whole entry): T1 sequence (A3KMY8 whole entry)
Nature of the experiment: Potency index, ratio of D-saccharic acid 1,4-lactone IC50 to compound IC50 for bovine liver beta-glucuronidase.

For orientation: IC50 means the midpoint of a concentration-inhibition curve. Take `COC(=O)C1=C(C)NC(=O)NC1CC(C)C` (stereo not given): the IC50 on Beta-glucuronidase (read-out: IC50) came out at 55.2 µM.

As to `COC(=O)C1=C(C)NC(=O)NC1c1ccc(N(C)C)cc1` (stereo not given), the IC50 at Beta-glucuronidase (read-out: IC50) was found to be 49.2 µM.

`COC(=O)C1=C(C)NC(=O)NC1c1ccccc1OCc1ccccc1` (stereo not given): the IC50 entry at Beta-glucuronidase is on record as “Not Active”.

For `COC(=O)C1=C(C)NC(=O)NC1c1cc(Br)c(OC)c(OC)c1` (stereo not given), the IC50 result at Beta-glucuronidase is recorded as “Not Active”.

With `COC(=O)C1=C(C)NC(=O)NC1c1ccc(C)o1` (stereo not given), the IC50 on Beta-glucuronidase (read-out: IC50) is 44.2 µM.

Regarding `CCC1NC(=O)NC(C)=C1C(=O)OC` (stereo not given), the IC50 at Beta-glucuronidase (read-out: IC50) came to 52.2 µM.

As for `COC(=O)C1=C(C)NC(=O)NC1c1cc(OC)ccc1OC` (stereo not given), the IC50 on Beta-glucuronidase (read-out: IC50) worked out at 61 µM.

As to `COC(=O)C1=C(C)NC(=O)NC1c1ccc(OC)c(OCc2ccccc2)c1` (stereo not given), the IC50 entry at Beta-glucuronidase was “Not Active”.

Take `COC(=O)C1=C(C)NC(=O)NC1c1ccco1` (stereo not given): at Beta-glucuronidase (read-out: IC50), the IC50 was found to be 40.2 µM.

Take `COC(=O)C1=C(C)NC(=O)NC1c1ccc(Cl)cc1` (stereo not given): the half-inhibitory concentration (IC50) on Beta-glucuronidase (read-out: IC50) worked out at 34.2 µM.

In the case of `COC(=O)C1=C(C)NC(=O)NC1c1ccsc1` (stereo not given), the IC50 at Beta-glucuronidase (read-out: IC50) worked out at 47.2 µM.

For the molecule `COC(=O)C1=C(C)NC(=O)NC1c1ccc(O)c(Cl)c1` (stereo not given), the IC50 at Beta-glucuronidase (read-out: IC50) is 27.2 µM.

Take `COC(=O)C1=C(C)NC(=O)NC1c1ccc(OC)c(OC)c1` (stereo not given): the IC50 entry on Beta-glucuronidase is on record as “Not Active”.

With `COC(=O)C1=C(C)NC(=O)NC1c1ccc([N+](=O)[O-])cc1` (stereo not given), on Beta-glucuronidase (read-out: IC50), the IC50 was 49.1 µM.

For `COC(=O)C1=C(C)NC(=O)NC1c1ccccc1F` (stereo not given), at Beta-glucuronidase (read-out: IC50), the IC50 came to 14.1 µM.

For the molecule `COC(=O)C1=C(C)NC(=O)NC1c1ccc(OC(C)=O)c(OC)c1` (stereo not given), the IC50 at Beta-glucuronidase (read-out: IC50) came to 28.2 µM.

Consider `COC(=O)C1=C(C)NC(=O)NC1c1cccc2ccccc12` (stereo not given), for which, at Beta-glucuronidase (read-out: IC50), the IC50 was found to be 48.2 µM.

On to `COC(=O)C1=C(C)NC(=O)NC1c1cccc(O)c1` (stereo not given), for which the concentration for half-maximal inhibition (IC50) on Beta-glucuronidase (read-out: IC50) is 15.2 µM. Further, the Ratio IC50 in experiment [1] was > 3.

On to `COC(=O)C1=C(C)NC(=O)NC1c1cc(OC)c(O)c(OC)c1` (stereo not given), for which, at Beta-glucuronidase (read-out: IC50), the IC50 was 34.2 µM.

On to `CCOc1ccc(C2NC(=O)NC(C)=C2C(=O)OC)cc1` (stereo not given), for which, on Beta-glucuronidase (read-out: IC50), the IC50 amounted to 72.2 µM.

`COC(=O)C1=C(C)NC(=O)NC1c1ccc(OC)cc1F` (stereo not given): the IC50 at Beta-glucuronidase (read-out: IC50) was found to be 18.2 µM.

As to `COC(=O)C1=C(C)NC(=O)NC1c1ccc2ccccc2c1` (stereo not given), the IC50 entry on Beta-glucuronidase is recorded as “Not Active”.

With `COC(=O)C1=C(C)NC(=O)NC1c1cccc(OCc2ccccc2)c1` (stereo not given), the 50% inhibitory concentration (IC50) result on Beta-glucuronidase was “Not Active”.

Turning to `COC(=O)C1=C(C)NC(=O)NC1c1cccs1` (stereo not given), the IC50 on Beta-glucuronidase (read-out: IC50) turned out to be 18.2 µM.

Turning to `COC(=O)C1=C(C)NC(=O)NC1c1ccc(OC)cc1` (stereo not given), at Beta-glucuronidase (read-out: IC50), the IC50 amounted to 59.2 µM.

Take `COC(=O)C1=C(C)NC(=O)NC1c1ccc(F)c(OC)c1` (stereo not given): the IC50 on Beta-glucuronidase (read-out: IC50) was determined as 22.1 µM.

`COC(=O)C1=C(C)NC(=O)NC1c1ccc(Br)cc1` (stereo not given): the IC50 on Beta-glucuronidase (read-out: IC50) came out at 64.1 µM.

Turning to `CCCCC1NC(=O)NC(C)=C1C(=O)OC` (stereo not given), the half-inhibitory concentration (IC50) at Beta-glucuronidase (read-out: IC50) is 78.2 µM.

In the case of `COC(=O)C1=C(C)NC(=O)NC1c1c(Cl)cccc1Cl` (stereo not given), the IC50 at Beta-glucuronidase (read-out: IC50) worked out at 24.2 µM. In addition, the Ratio IC50 in experiment [1] came out at 2.

Take `COC(=O)C1=C(C)NC(=O)NC1c1ccccc1OC` (stereo not given): the 50% inhibitory concentration (IC50) on Beta-glucuronidase (read-out: IC50) worked out at 59.2 µM.

For `COC(=O)C1=C(C)NC(=O)NC1c1ccc(C(C)C)cc1` (stereo not given), at Beta-glucuronidase, the IC50 entry was “Not Active”.

On to `COC(=O)C1=C(C)NC(=O)NC1c1ccccc1Cl` (stereo not given), for which the IC50 on Beta-glucuronidase (read-out: IC50) turned out to be 44.2 µM.

With `COC(=O)C1=C(C)NC(=O)NC1c1cccc(OC)c1OC` (stereo not given), at Beta-glucuronidase (read-out: IC50), the IC50 came to 54.2 µM.

As for `COC(=O)C1=C(C)NC(=O)NC1c1ccc(C(F)(F)F)cc1` (stereo not given), at Beta-glucuronidase (read-out: IC50), the IC50 came out at 9.38 µM. Besides, the Ratio IC50 in experiment [1] was determined as 5.

As to `COC(=O)C1=C(C)NC(=O)NC1c1ccc(O)cc1` (stereo not given), the IC50 at Beta-glucuronidase (read-out: IC50) was determined as 17.6 µM.

In the case of `COC(=O)C1=C(C)NC(=O)NC1c1ccc(C)s1` (stereo not given), the IC50 on Beta-glucuronidase (read-out: IC50) turned out to be 33.1 µM.

For the molecule `COC(=O)C1=C(C)NC(=O)NC1c1ccccc1` (stereo not given), the IC50 result on Beta-glucuronidase is recorded as “Not Active”.

The values above are taken from ChEMBL document CHEMBL3817800, “Dihydropyrimidones: As novel class of β-glucuronidase inhibitors” (Bioorg Med Chem, 2016).
